Experimental data reported in patent publication US11753407B2, “Compounds for treating spinal muscular atrophy” (PTC Therapeutics, Inc., priority 2012, dated 2023).

Assays:
[1] = system: SMN2 minigene mRNA (SMN2-A minigene) in HEK293H cells; assay: SMN2 minigene mRNA splicing RT-qPCR assay in cultured cells; type: cell-based, human; details: Homo sapiens, HEK293-H; concentration increasing full length SMN2 mRNA 1.5-fold relative to vehicle-treated cells; HEK293H cells with SMN2-A minigene, 24 hours, 7-point concentration data; read-out: EC1.5x for production of full length SMN2 mRNA
Procedure, shortened: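 HEK293H cells stably carrying SMN2-A minigene treated with compounds (7-point, 3.16-fold dilutions, duplicates) for 24 h at 37 °C. Full-length exon 7-containing minigene mRNA measured by multiplex RT-qPCR with GAPDH, normalized and expressed relative to vehicle (modified ΔΔCt); EC1.5× is concentration giving 1.5-fold increase.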

[2] = system: Smn protein in SMA patient fibroblast cells (GM03813); assay: Smn protein assay in cultured cells (SMN HTRF); type: cell-based, human; details: SMA patient fibroblast cells, 48 hours; for EC1.5x for Smn protein expression: 7-point concentration curve, SMN HTRF, concentration producing 1.5 times Smn protein vs DMSO vehicle control; for maximum fold (Fold) increase of Smn protein: 7-point concentration data, fold relative to vehicle control
Procedure, shortened: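 SMA patient fibroblasts (5,000/well, DMEM-10% FBS) treated 48 h at 37° C with 7-point, 3.16-fold compound series in triplicate; lysates read by SMN HTRF (665/620 nm ratio). Fold Smn increase over DMSO vehicle derived; EC1.5× is concentration giving 1.5-fold Smn, with maximum fold also reported.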

| Compound | EC (1.5-fold increase) [1] | EC1.5x for Smn protein expression [2] | maximum fold (Fold) increase of Smn protein [2] |
| --- | --- | --- | --- |
| Cc1cn2cc(-c3cc(=O)n4cc(N5CCN6CCC[C@@]6(C)C5)ccc4n3)cc(F)c2n1 [Compound 816, 2-(8-fluoro-2-methylimidazo[1,2-a]pyridin-6-yl)-7-[(8aS)-8a-methylhexahydropyrrolo[1,2-a]pyrazin-2(1H)-yl]-4H-pyrido[1,2-a]pyrimidin-4-one] | < 0.1 µM | **** (an EC1.5x≤0.3 μM is indicated by four stars (****)) | **** (a fold increase between >1.5 and ≤1.65 is indicated by four stars (****)) |
| CNC1CCN(c2cc(C)c3nc(-c4ccc(OC)c(OC)c4)cc(=O)n3c2)CC1 [Compound 358, 2-(3,4-dimethoxyphenyl)-9-methyl-7-[4-(methylamino)piperidin-1-yl]-4H-pyrido[1,2-a]pyrimidin-4-one] | < 0.1 µM | ** (an EC1.5× between >1 μM and ≤3 μM is indicated by two stars (**)) | *** (a fold increase between >1.35 and ≤1.5 is indicated by three stars (***)) |
| Cc1cn2cc(-c3cc(=O)n4cc(N5CCN(C)CC5)ccc4n3)cc(C#N)c2n1 [Compound 807, 2-methyl-6-[7-(4-methylpiperazin-1-yl)-4-oxo-4H-pyrido[1,2-a]pyrimidin-2-yl]imidazo[1,2-a]pyridine-8-carbonitrile] | < 0.1 µM | **** (an EC1.5x≤0.3 μM is indicated by four stars (****)) | ***** (a fold increase >1.65 is indicated by five stars (*****)) |
| Cc1cn2cc(-c3cc(=O)n4cc(N5CCN(C)CC5)ccc4n3)ccc2n1 [Compound 114, 2-(2-methylimidazo[1,2-a]pyridin-6-yl)-7-(4-methylpiperazin-1-yl)-4H-pyrido[1,2-a]pyrimidin-4-one] | 1 to 3 µM |  | *** (a fold increase between >1.35 and ≤1.5 is indicated by three stars (***)) |
| Cc1cn2cc(-c3cc(=O)n4cc(N5CC[C@H](N(C)C)C5)ccc4n3)cc(C)c2n1 [Compound 828, 7-[(3S)-3-(dimethylamino)pyrrolidin-1-yl]-2-(2,8-dimethylimidazo[1,2-a]pyridin-6-yl)-4H-pyrido[1,2-a]pyrimidin-4-one] | < 0.1 µM | **** (an EC1.5x≤0.3 μM is indicated by four stars (****)) | ***** (a fold increase >1.65 is indicated by five stars (*****)) |
| Cc1cn2cc(-c3cc(=O)n4cc(N5CCN6CCCC6(C)C5)ccc4n3)cc(C)c2n1 (centres unmarked) [Compound 821, 2-(2,8-dimethylimidazo[1,2-a]pyridin-6-yl)-7-(8a-methylhexahydropyrrolo[1,2-a]pyrazin-2(1H)-yl)-4H-pyrido[1,2-a]pyrimidin-4-one] | < 0.1 µM | **** (an EC1.5x≤0.3 μM is indicated by four stars (****)) | ***** (a fold increase >1.65 is indicated by five stars (*****)) |
| Cc1cn2cc(-c3ccc4nc(C5=CCNCC5)cc(=O)n4c3)cc(F)c2n1 [Compound 372, 7-(8-fluoro-2-methylimidazo[1,2-a]pyridin-6-yl)-2-(1,2,3,6-tetrahydropyridin-4-yl)-4H-pyrido[1,2-a]pyrimidin-4-one] | < 0.1 µM | **** (an EC1.5x≤0.3 μM is indicated by four stars (****)) | ***** (a fold increase >1.65 is indicated by five stars (*****)) |
| CCN1CC=C(c2cn3c(=O)cc(-c4ccc5c(cnn5C)c4)nc3cn2)CC1 [Compound 507, 7-(1-ethyl-1,2,3,6-tetrahydropyridin-4-yl)-2-(1-methyl-1H-indazol-5-yl)-4H-pyrazino[1,2-a]pyrimidin-4-one] | 0.1 to 0.3 µM | *** (an EC1.5× between >0.3 μM and ≤1 μM is indicated by three stars (***)) | **** (a fold increase between >1.5 and ≤1.65 is indicated by four stars (****)) |
| COc1ccc(-c2cc(=O)n3cc(C4C[C@H]5CC[C@@H](C4)N5C)ccc3n2)cc1OC (stereo partly drawn) [Compound 320, 2-(3,4-dimethoxyphenyl)-7-[(1R,5S)-8-methyl-8-azabicyclo[3.2.1]oct-3-yl]-4H-pyrido[1,2-a]pyrimidin-4-one] | 0.3 to 1 µM | ** (an EC1.5× between >1 μM and ≤3 μM is indicated by two stars (**)) | **** (a fold increase between >1.5 and ≤1.65 is indicated by four stars (****)) |
| CCc1cc(-c2cc(=O)n3cc(N4CCCN(C)CC4)ccc3n2)cn2cc(C)nc12 [Compound 676, 2-(8-ethyl-2-methylimidazo[1,2-a]pyridin-6-yl)-7-(4-methyl-1,4-diazepan-1-yl)-4H-pyrido[1,2-a]pyrimidin-4-one] | < 0.1 µM | *** (an EC1.5× between >0.3 μM and ≤1 μM is indicated by three stars (***)) | ***** (a fold increase >1.65 is indicated by five stars (*****)) |
| CCc1nc(C)cn2nc(-c3cc(=O)n4cc(N5CCN6CCC[C@H]6C5)ccc4n3)cc12 [Compound 812, 2-(4-ethyl-6-methylpyrazolo[1,5-a]pyrazin-2-yl)-7-[(8aS)-hexahydropyrrolo[1,2-a]pyrazin-2(1H)-yl]-4H-pyrido[1,2-a]pyrimidin-4-one] | < 0.1 µM | **** (an EC1.5x≤0.3 μM is indicated by four stars (****)) | ***** (a fold increase >1.65 is indicated by five stars (*****)) |
| COc1ccc(-c2cc(=O)n3cc(N4CCN5CCC[C@@H]5C4)cc(C)c3n2)cc1OC [Compound 414, 2-(3,4-dimethoxyphenyl)-7-[(8aR)-hexahydropyrrolo[1,2-a]pyrazin-2(1H)-yl]-9-methyl-4H-pyrido[1,2-a]pyrimidin-4-one] | < 0.1 µM | *** (an EC1.5× between >0.3 μM and ≤1 μM is indicated by three stars (***)) | ***** (a fold increase >1.65 is indicated by five stars (*****)) |
| Cc1cn2nc(-c3cc(=O)n4cc(C5=CCN(C)CC5)cc(C)c4n3)cc2c(C)n1 [Compound 481, 2-(4,6-dimethylpyrazolo[1,5-a]pyrazin-2-yl)-9-methyl-7-(1-methyl-1,2,3,6-tetrahydropyridin-4-yl)-4H-pyrido[1,2-a]pyrimidin-4-one] | < 0.1 µM | **** (an EC1.5x≤0.3 μM is indicated by four stars (****)) | **** (a fold increase between >1.5 and ≤1.65 is indicated by four stars (****)) |
| COc1ccc(-c2cc(=O)n3cc(OC4CCN(C)CC4)ccc3n2)cc1OC [Compound 235, 2-(3,4-dimethoxyphenyl)-7-[(1-methylpiperidin-4-yl)oxy]-4H-pyrido[1,2-a]pyrimidin-4-one] | 0.3 to 1 µM | ** (an EC1.5× between >1 μM and ≤3 μM is indicated by two stars (**)) | **** (a fold increase between >1.5 and ≤1.65 is indicated by four stars (****)) |
| Cc1cn2nc(-c3cc(=O)n4cc(N5CCN[C@H](C)C5)ccc4n3)cc2c(C)n1 [Compound 335, 2-(4,6-dimethylpyrazolo[1,5-a]pyrazin-2-yl)-7-[(3R)-3-methylpiperazin-1-yl]-4H-pyrido[1,2-a]pyrimidin-4-one] | < 0.1 µM | **** (an EC1.5x≤0.3 μM is indicated by four stars (****)) | ***** (a fold increase >1.65 is indicated by five stars (*****)) |
| Cc1cn2nc(-c3cc(=O)n4cc(N5C[C@H]6CN(C)C[C@H]6C5)ccc4n3)cc2c(C)n1 [Compound 835, 2-(4,6-dimethylpyrazolo[1,5-a]pyrazin-2-yl)-7-[(3aR,6aS)-5-methylhexahydropyrrolo[3,4-c]pyrrol-2(1H)-yl]-4H-pyrido[1,2-a]pyrimidin-4-one] | < 0.1 µM | **** (an EC1.5x≤0.3 μM is indicated by four stars (****)) | ***** (a fold increase >1.65 is indicated by five stars (*****)) |
| CCc1nc(C)cn2nc(-c3cc(=O)n4cc(N(C)CCNC)ccc4n3)cc12 [Compound 826, 2-(4-ethyl-6-methylpyrazolo[1,5-a]pyrazin-2-yl)-7-{methyl[2-(methylamino)ethyl]amino}-4H-pyrido[1,2-a]pyrimidin-4-one] | 0.1 to 0.3 µM | ** (an EC1.5× between >1 μM and ≤3 μM is indicated by two stars (**)) | ***** (a fold increase >1.65 is indicated by five stars (*****)) |
